# PubChem BioAssay (NCI)
#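 Five compound concentrations were applied to cells in 96-well plates for 48 hours; endpoints were derived by simple linear interpolation of the resulting dose-response curve. GI50: concentration for 50% inhibition of growth. At the TGI there is no net growth.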
# What was measured:
# Assay in all cases: NCI anticancer screen, dose series, 48 h
# CAKI-1 renal = system: CAKI-1 renal
# HS 578T breast = system: HS 578T breast
# EKVX NSCLC = system: EKVX NSCLC
# MDA-MB-435 = system: MDA-MB-435
# NCI-H522 lung = system: NCI-H522 lung
# HCC-2998 colon = system: HCC-2998 colon
# SW-620 colon = system: SW-620 colon
# LOX IMVI melanoma = system: LOX IMVI melanoma
# PC-3 prostate = system: PC-3 prostate
# T-47D breast = system: T-47D breast
# NCI/ADR-RES ovarian = system: NCI/ADR-RES ovarian
# KM12 colon = system: KM12 colon
# NCI-H460 lung = system: NCI-H460 lung
# SNB-75 CNS = system: SNB-75 CNS
# MCF7 breast = system: MCF7 breast
# HOP-62 NSCLC = system: HOP-62 NSCLC
# HT29 colon = system: HT29 colon
# MOLT-4 leukemia = system: MOLT-4 leukemia
# CCRF-CEM leukemia = system: CCRF-CEM leukemia
# OVCAR-4 ovarian = system: OVCAR-4 ovarian
# SK-OV-3 ovarian = system: SK-OV-3 ovarian
# COLO 205 colon = system: COLO 205 colon
# SK-MEL-28 melanoma = system: SK-MEL-28 melanoma
# K-562 leukemia = system: K-562 leukemia
# A498 renal = system: A498 renal
# NCI-H23 lung = system: NCI-H23 lung
# HCT-15 colon = system: HCT-15 colon
# UO-31 renal = system: UO-31 renal
# NCI-H226 lung = system: NCI-H226 lung
# OVCAR-8 ovarian = system: OVCAR-8 ovarian
# 786-0 renal = system: 786-0 renal
# MDA-MB-231 breast = system: MDA-MB-231 breast
# M14 melanoma = system: M14 melanoma
# SF-539 CNS = system: SF-539 CNS
# MALME-3M melanoma = system: MALME-3M melanoma
# U251 CNS = system: U251 CNS
# SNB-19 CNS = system: SNB-19 CNS
# RXF 393 renal = system: RXF 393 renal
# HCT-116 colon = system: HCT-116 colon
# SF-268 CNS = system: SF-268 CNS
# SK-MEL-5 melanoma = system: SK-MEL-5 melanoma
# OVCAR-5 ovarian = system: OVCAR-5 ovarian
# TK-10 renal = system: TK-10 renal
# ACHN renal = system: ACHN renal
# DU-145 prostate = system: DU-145 prostate
# BT-549 breast = system: BT-549 breast
# IGROV1 ovarian = system: IGROV1 ovarian
# HL-60(TB) leukemia = system: HL-60(TB) leukemia
# SK-MEL-2 melanoma = system: SK-MEL-2 melanoma
# UACC-62 melanoma = system: UACC-62 melanoma
# SN12C renal = system: SN12C renal
# SF-295 CNS = system: SF-295 CNS
# UACC-257 melanoma = system: UACC-257 melanoma
# RPMI-8226 leukemia = system: RPMI-8226 leukemia
# A549 NSCLC = system: A549 NSCLC
# HOP-92 NSCLC = system: HOP-92 NSCLC
smiles,measurement,setting,value
CS(=O)(=O)Nc1cc(-c2ccc3ncc(C#N)c(Nc4cccc(Cl)c4F)c3c2)cnc1Cl,GI50,CAKI-1 renal,0.0729 µM
same,TGI,CAKI-1 renal,1.59 µM
same,GI50,HS 578T breast,0.0567 µM
same,TGI,HS 578T breast,0.537 µM
same,GI50,EKVX NSCLC,0.367 µM
same,TGI,EKVX NSCLC,2.63 µM
same,GI50,MDA-MB-435,0.277 µM
same,TGI,MDA-MB-435,3 µM
same,GI50,NCI-H522 lung,0.255 µM
same,TGI,NCI-H522 lung,2.67 µM
same,GI50,HCC-2998 colon,0.507 µM
same,TGI,HCC-2998 colon,2.19 µM
same,GI50,SW-620 colon,0.0733 µM
same,TGI,SW-620 colon,1.82 µM
same,GI50,LOX IMVI melanoma,0.107 µM
same,TGI,LOX IMVI melanoma,0.641 µM
same,GI50,PC-3 prostate,0.26 µM
same,TGI,PC-3 prostate,3.6 µM
same,GI50,T-47D breast,0.101 µM
same,TGI,T-47D breast,4.79 µM
same,GI50,NCI/ADR-RES ovarian,1.25 µM
same,TGI,NCI/ADR-RES ovarian,20.7 µM
same,GI50,KM12 colon,0.324 µM
same,TGI,KM12 colon,2.09 µM
same,GI50,NCI-H460 lung,0.391 µM
same,TGI,NCI-H460 lung,10.9 µM
same,GI50,SNB-75 CNS,< 0.0131 µM
same,TGI,SNB-75 CNS,0.395 µM
same,GI50,MCF7 breast,0.0643 µM
same,TGI,MCF7 breast,4.03 µM
same,GI50,HOP-62 NSCLC,0.198 µM
same,TGI,HOP-62 NSCLC,7.8 µM
same,GI50,HT29 colon,0.329 µM
same,TGI,HT29 colon,2.32 µM
same,GI50,MOLT-4 leukemia,0.0823 µM
same,TGI,MOLT-4 leukemia,1.58 µM
same,GI50,CCRF-CEM leukemia,0.0906 µM
same,TGI,CCRF-CEM leukemia,> 39.9 µM
same,GI50,OVCAR-4 ovarian,0.495 µM
same,TGI,OVCAR-4 ovarian,8.09 µM
same,GI50,SK-OV-3 ovarian,0.36 µM
same,TGI,SK-OV-3 ovarian,2.61 µM
same,GI50,COLO 205 colon,0.219 µM
same,TGI,COLO 205 colon,0.955 µM
same,GI50,SK-MEL-28 melanoma,0.189 µM
same,TGI,SK-MEL-28 melanoma,2.82 µM
same,GI50,K-562 leukemia,0.115 µM
same,TGI,K-562 leukemia,> 100 µM
same,GI50,A498 renal,0.0937 µM
same,TGI,A498 renal,0.471 µM
same,GI50,NCI-H23 lung,0.158 µM
same,TGI,NCI-H23 lung,9.36 µM
same,GI50,HCT-15 colon,0.111 µM
same,TGI,HCT-15 colon,2.87 µM
same,GI50,UO-31 renal,0.205 µM
same,TGI,UO-31 renal,2.92 µM
same,GI50,NCI-H226 lung,0.556 µM
same,TGI,NCI-H226 lung,11.1 µM
same,GI50,OVCAR-8 ovarian,0.369 µM
same,TGI,OVCAR-8 ovarian,4.23 µM
same,GI50,786-0 renal,0.366 µM
same,TGI,786-0 renal,3.55 µM
same,GI50,MDA-MB-231 breast,0.333 µM
same,TGI,MDA-MB-231 breast,2.31 µM
same,GI50,M14 melanoma,0.308 µM
same,TGI,M14 melanoma,3.58 µM
same,GI50,SF-539 CNS,0.181 µM
same,TGI,SF-539 CNS,2.86 µM
same,GI50,MALME-3M melanoma,0.0683 µM
same,TGI,MALME-3M melanoma,0.708 µM
same,GI50,U251 CNS,0.0591 µM
same,TGI,U251 CNS,1.28 µM
same,GI50,SNB-19 CNS,0.288 µM
same,TGI,SNB-19 CNS,3.11 µM
same,GI50,RXF 393 renal,0.0768 µM
same,TGI,RXF 393 renal,0.91 µM
same,GI50,HCT-116 colon,0.0665 µM
same,TGI,HCT-116 colon,1.14 µM
same,GI50,SF-268 CNS,0.0876 µM
same,TGI,SF-268 CNS,1.81 µM
same,GI50,SK-MEL-5 melanoma,0.0492 µM
same,TGI,SK-MEL-5 melanoma,0.182 µM
same,GI50,OVCAR-5 ovarian,0.749 µM
same,TGI,OVCAR-5 ovarian,3.92 µM
same,GI50,TK-10 renal,0.0847 µM
same,TGI,TK-10 renal,0.926 µM
same,GI50,ACHN renal,0.591 µM
same,TGI,ACHN renal,21.2 µM
same,GI50,DU-145 prostate,0.289 µM
same,TGI,DU-145 prostate,5.46 µM
same,GI50,BT-549 breast,0.056 µM
same,TGI,BT-549 breast,0.959 µM
same,GI50,IGROV1 ovarian,0.101 µM
same,TGI,IGROV1 ovarian,0.869 µM
same,GI50,HL-60(TB) leukemia,0.094 µM
same,GI50,SK-MEL-2 melanoma,0.0292 µM
same,TGI,SK-MEL-2 melanoma,0.177 µM
same,GI50,UACC-62 melanoma,0.12 µM
same,TGI,UACC-62 melanoma,1.58 µM
same,GI50,SN12C renal,0.152 µM
same,TGI,SN12C renal,39.4 µM
same,GI50,SF-295 CNS,0.267 µM
same,TGI,SF-295 CNS,3.25 µM
same,GI50,UACC-257 melanoma,0.4 µM
same,TGI,UACC-257 melanoma,4.54 µM
same,GI50,RPMI-8226 leukemia,0.0947 µM
same,TGI,RPMI-8226 leukemia,1.17 µM
same,GI50,A549 NSCLC,0.763 µM
same,TGI,A549 NSCLC,2.84 µM
same,GI50,HOP-92 NSCLC,0.0219 µM
same,TGI,HOP-92 NSCLC,0.348 µM
